Earlier results, collected in patent publication US20060111343A1, “Oxcarbazepine dosage forms” (Glenmark Pharmaceuticals Limited, priority 2004, published 2006).

solubility in water: poor solubility in water
SMILES: NC(=O)N1c2ccccc2CC(=O)c2ccccc21 [Oxcarbazepine, 10,11-dihydro-10-oxo-5H-dibenzo[b,]azepine-5-carboxamide]
